In patent US20230087359A1, “CANNABINOID COMPOSITIONS AND METHODS OF USE THEREOF” (DAY THREE LABS MAN[…]., priority 2017, published 2023):

Tested on: pentobarbital-induced sleep
Experiment: Loss Of Righting Reflex (LORR) test, pentobarbital-induced sleep in mice
Type: in vivo, mouse (7-week-old male Balb/C mice)
[1] = LORR test, IP treatment 30 min before pentobarbital 30 or 40 mg/kg IP, diazepam 3 mg/kg

CN1C(=O)CN=C(c2ccccc2)c2cc(Cl)ccc21 [diazepam]
percentage of mice in treatment group that fell asleep after pentobarbital administration (Example 1, FIG. 3): 92% | percentage of subjects with a transient awakening (woke up once) during the sleep session (Example 1, FIG. 4): 25% | percentage of subjects with no transient awakenings during the sleep session (Example 1, FIG. 4): 75% | percentage of mice in treatment group that fell asleep after pentobarbital administration (response rate) (Example 2, FIG. 7): 86% | mean sleep duration [1]: 60 to 90 min | mean sleep onset [1]: 3 to 5 min
